Reference: US20260191244A1, “NOVEL FLAVOR COMPOUNDS” (INTERNATIONAL FLAVORS & FRAGRANCES INC., priority 2022, published 2026)

How the values were obtained:
[1] = Flavor evaluation in monosodium glutamate (MSG) solution (5000 ppm)
Procedure: A monosodium glutamate (MSG) solution (5000 ppm) was prepared in water. The flavor profile of the MSG solution with added Structure A4 is reported in the following:
As used herein, the term “synergistic umami” refers to the umami effect of the Structure A4 and MSG combination that is stronger than the added umami effect of individual Structure A4 and MSG. […]

[2] = Summary statements over all flavor evaluations
[3] = Flavor evaluation in Ribotide solution (1000 ppm); conditions: 2 ppm added in Ribotide solution (1000 ppm)
Text: The Structure A4 and B4 mixture of 50:50 ratio ([…]) was further evaluated in Ribotide® (1000 ppm).

[4] = Flavor evaluation of water solutions; conditions: for Flavor Profile: water solution
Procedure: A series of water solutions of N-(4-methoxyphenyl)-2-methyl-2-(1-methylcyclohexyl)propenamide (Structure A4) were prepared and evaluated for flavor. The flavor profile is reported in the following:
Preparation and Evaluation of N-(4-Methoxyphenyl)-2-methyl-2-(1-methylcyclohexyl)propenamide (Structure A4) and 1-(tert-Butyl)-N-(4-methoxyphenyl)cyclohexane-1-carboxamide (Structure B4) Mixtures of Different Ratios: Mixtures of N-(4-methoxyphenyl)-2-methyl-2-(1-methylcyclohexyl)propenamide (Structure A4) and 1-(tert-butyl)-N-(4-methoxyphenyl)cyclohexane-1-carboxamide (Structure B4) were prepared by mixing two compounds at different ratios. “Ratio” refers to the weight ratio of Structure A4 and Structure B4. Water solutions of the mixtures (375 ppb) were prepared and evaluated for flavor in water, MSG solution (5000 ppm) and a salt solution (containing NaCl of 3750 ppm, Ribotide® of 35 ppm and MSG of 840 ppm), respectively. Water, MSG solution and the salt solution were each used as base controls.

## COc1ccc(NC(=O)C(C)(C)C2(C)CCCCC2)cc1 [Structure A4, N-(4-Methoxyphenyl)-2-methyl-2-(1-methylcyclohexyl)propenamide]
[1]; MSG solution (5000 ppm) with added Structure A4 1 ppm
  Umami Strength: Synergistic umami of Structure A4 and MSG, lingering umami
[1]; MSG solution (5000 ppm) with added Structure A4 2 ppm
  Umami Strength: Synergistic umami of Structure A4 and MSG, lingering umami
[1]; MSG solution (5000 ppm) with added Structure A4 5 ppm
  Umami Strength: Synergistic umami of Structure A4 and MSG, strong cooling
[1]; MSG solution (5000 ppm) with added Structure A4 10 ppm
  Umami Strength: Synergistic umami of Structure A4 and MSG, strong cooling
[1]; MSG solution (5000 ppm) with added Structure A4 15 ppm
  Umami Strength: Synergistic umami of Structure A4 and MSG, strong cooling
[1]; MSG solution (5000 ppm) with added Structure A4 100 ppb
  Umami Strength: Added effect of Structure A4 and MSG
[1]; MSG solution (5000 ppm) with added Structure A4 200 ppb
  Umami Strength: Synergistic umami of Structure A4 and MSG, lingering umami
[1]; MSG solution (5000 ppm) with added Structure A4 375 ppb
  Umami Strength: Synergistic umami of Structure A4 and MSG, lingering umami
[1]; MSG solution (5000 ppm) with added Structure A4 500 ppb
  Umami Strength: Synergistic umami of Structure A4 and MSG, lingering umami
[1]; MSG solution (5000 ppm) with added Structure A4 750 ppb
  Umami Strength: Synergistic umami of Structure A4 and MSG, lingering umami
[1]; Structure A4 ranging from 200 ppb to 15 ppm and MSG (5000 ppm)
  Synergistic umami with MSG: Synergistic umami was achieved
[2]; in all evaluations
  Umami character: provided upfront and lingering umami character
[2]; when combined with Structure B4 and/or an additional umami compound
  Synergistic umami: achieved synergistic umami
[3]
  Synergistic umami in Ribotide solution: synergistic umami was also achieved
[4]; Structure A4 1 ppm
  Flavor Profile: Strong umami, cooling, tingly, tongue scratching
[4]; Structure A4 2 ppm
  Flavor Profile: Strong and lingering umami, good mouthfeel, cooling, tingling
[4]; Structure A4 5 ppm
  Flavor Profile: Strong and lingering umami, moderate and lingering cooling, lingering bitter, drying
[4]; Structure A4 10 ppm
  Flavor Profile: Moderate umami, moderate cooling, lingering bitter, tingling, brackish linger
[4]; Structure A4 15 ppm
  Flavor Profile: Moderate umami, moderate cooling, lingering bitter, creamy, mineral, drying
[4]; Structure A4 100 ppb
  Flavor Profile: Very slight bitter, minimal cooling, drying linger, minimal umami
[4]; Structure A4 200 ppb
  Flavor Profile: Slight cooling, slight bitter, drying, very slight umami
[4]; Structure A4 375 ppb
  Flavor Profile: Slight bitter, cooling, umami, linger
[4]; Structure A4 500 ppb
  Flavor Profile: Clear and moderate umami, slight bitter, cooling, linger
[4]; Structure A4 750 ppb
  Flavor Profile: Clear and moderate umami, cooling, slightly soapy, slightly waxy
[4]; water solutions, all concentrations 100 ppb to 15 ppm
  Umami in water: exhibited umami

## COc1ccc(NC(=O)C2(C(C)(C)C)CCCCC2)cc1 [Structure B4, 1-(tert-butyl)-N-(4-methoxyphenyl)cyclohexane-1-carboxamide]
[4]; 375 ppb in water
  Flavor in water: slight umami, slight sweetness and bitter linger
